Measured values taken from US12031986B2, “Polypeptide for targeting recognition of immune cells and application thereof” (KEYANGLE LIFE TECHNOLOGY CO., LTD., priority 2019, dated 2024).
“Also recorded” adds a separate entry of the source. No end group written: not given here. K(rhodamine) = not defined here; code X = not defined here

system: mouse peritoneal macrophages; assay: In vitro fluorescent labeling of mouse peritoneal macrophages at different incubation times; assay type: cell-based; conditions: incubating only for 10 min
Description: Referring to Example 9, using the same treatment process, the macrophages from mouse abdominal cavity were obtained. After culturing for 6 days, the cultured peritoneal cells were labeled with KS24 fluorescent probes for different incubation times. Then the cells were observed under a fluorescence microscope (20×, light source 20%, exposure 200 ms, gain 5).
Nucblue (blue fluorescence) was further used for nuclear staining. In each of FIGS. 14A, 14B, 14C, and 14D, i) is an image labeled with the KS24 fluorescent probe (shown in red fluorescence in the original fluorescence color image), and ii) is an image obtained by nuclear staining with Nucblue (shown in blue fluorescence in the original fluorescence color image), and iii) is a merged image of i) and ii).

Row | Substance | fluorescence detection with microscope
1 | X-EQPDPGAVAAAAILRAILEVLQS ({code X}-EQPDPGAVAAAAILRAILEVLQS; reading uncertain; also: reporter type not given here, printed as X-EQPDPGAVAAAAILRAILEVLQS; listed as Homo sapiens) [KS24, X = reporter or cysteine/lysine + reporter at N-terminal] | can be even detected

same assay, conditions: incubation 10, 20, 40 and 80 min; cells cultured 6 days

Row | Substance | labeled fluorescence of the cells versus incubation time
2 | X-EQPDPGAVAAAAILRAILEVLQS ({code X}-EQPDPGAVAAAAILRAILEVLQS; reading uncertain; also: reporter type not given here, printed as X-EQPDPGAVAAAAILRAILEVLQS; listed as Homo sapiens) [KS24, X = reporter or cysteine/lysine + reporter at N-terminal] | gradually becomes stronger with the incubation time

system: mouse peritoneal macrophages; assay: In vivo fluorescent labeling of macrophages in a mouse abdominal cavity; conditions: in vivo probe labeling, then F4/80 antibody double-stain of extracted peritoneal cells
Description: Dilute 300 μL of 50 μM AK9 fluorescent probe solution with serum-free DMEM incomplete medium to obtain 1 mL of solution, then inject into the abdominal cavities of 5-8 week old Kunming mice. After 4 hours, inject 5 mL of 1×PBS, and massage. After 10 minutes, sacrifice the mice by cervical vertebra dislocation. Cut the abdominal cavity skin of the mice, pierce the abdominal wall muscle by syringe, and extract the fluid in the abdominal cavity of the mice. Centrifuge the extracted peritoneal fluid at 1000 rpm for 5 min, wash twice with 1×PBS. Double-stain an appropriate number of cells with Alexa Fluor 488 anti-mouse F4/80 antibody (Biolegend). Add the stained cells to a 96-well plate and stain with a nuclear dye Nucblue (Invitrogen). Observe under EVOS FL Auto fluorescence microscope (Life Technologies, 20×, light source 50%, exposure 200 ms, gain 10) after the suspended cells were settled down at the bottom of the plate.
Table 1 lists probes, which contain the polypeptide fragments from the C-terminal fragments of Triokinases/FMN cyclases of different species and were prepared by a similar process as described in Examples 1 and 2, and in vivo imaging results of mouse peritoneal macrophages using these probes.

Row | Substance | labeling on the same cells, probe and F4/80 antibody
3 | AILEVLQS-Y (AILEVLQS-{K(rhodamine)}; reading uncertain) [AK9, Human Triokinase/FMN cyclase C-terminal fragment; Y is lysine + rhodamine fluorescent labeling group on the lysine side chain] | labeled on the same cells

same assay, conditions: probe injected into abdominal cavity, cells extracted after 4 hours, fluorescence microscope

Row | Substance | in vivo labeling / recognition of mouse peritoneal macrophages by the fluorescent probe
4 | AAILRAILEVLQS-Y (AAILRAILEVLQSY; also: C-terminal Y: reporter or Cys/Lys + reporter (rhodamine or FITC), not given here; listed as Homo sapiens) [AK14, Y = reporter or cysteine/lysine + reporter] | can effectively recognize macrophages in vivo; also recorded: can be labeled
5 | AILEVLQS-Y (AILEVLQS-{K(rhodamine)}; reading uncertain) [AK9, Human Triokinase/FMN cyclase C-terminal fragment; Y is lysine + rhodamine fluorescent labeling group on the lysine side chain] | can effectively recognize macrophages in vivo
6 | AVLEVLQG-Y (AVLEVLQGY; also: reporter type not given here) [Hx-AVGK9, Y = reporter or cysteine/lysine + reporter] | can be labeled
7 | ILRAILEVLQS-Y (ILRAILEVLQSY; also: reporter type not given here; listed as Homo sapiens) [IK12, Y = reporter or cysteine/lysine + reporter] | can effectively recognize macrophages in vivo; also recorded: can be labeled
8 | LQPDPGAVAAAAVLRAVLEGLQG-Y (LQPDPGAVAAAAVLRAVLEGLQGY; also: reporter type not given here; listed as Gallus gallus) [LK24, Y = reporter or cysteine/lysine + reporter] | can effectively recognize macrophages in vivo; also recorded: can also be labeled
9 | LQPDPSAVAAAAVLRAVLEVLQG-Y (LQPDPSAVAAAAVLRAVLEVLQGY; also: reporter type not given here) [Cx-LK24, Y = reporter or cysteine/lysine + reporter] | can be labeled
10 | LRAILEVLQS-Y (LRAILEVLQSY; also: reporter type not given here; listed as Homo sapiens) [LK11, Y = reporter or cysteine/lysine + reporter] | can effectively recognize macrophages in vivo; also recorded: can be labeled
11 | PGAVAAAAILRAILEVLQS-Y (PGAVAAAAILRAILEVLQSY; also: reporter type not given here; listed as Homo sapiens) [PK20, Y = reporter or cysteine/lysine + reporter] | can effectively recognize macrophages in vivo; also recorded: can be labeled
12 | VLRAVLEVLQG-Y (VLRAVLEVLQGY; also: reporter type not given here) [Hx-VVGK12, Y = reporter or cysteine/lysine + reporter] | can be labeled
13 | X-DQPDPGAVAAAAIFRAILEVLQTKAA ({code X}-DQPDPGAVAAAAIFRAILEVLQTKAA; reading uncertain; also: reporter type not given here, printed as X-DQPDPGAVAAAAIFRAILEVLQTKAA; listed as Rattus norvegicus) [r-KA27, X = reporter or cysteine/lysine + reporter] | can effectively recognize macrophages in vivo; also recorded: can be labeled
14 | X-DQPDPGAVAAAAILRAILEVLQSQGA ({code X}-DQPDPGAVAAAAILRAILEVLQSQGA; reading uncertain; also: reporter type not given here, printed as X-DQPDPGAVAAAAILRAILEVLQSQGA; listed as Sus scrofa) [b-KA27, X = reporter or cysteine/lysine + reporter] | can effectively recognize macrophages in vivo; also recorded: can be labeled
15 | X-DQPDPGAVAAAAILRTILEVLQSQGV ({code X}-DQPDPGAVAAAAILRTILEVLQSQGV; reading uncertain; also: reporter type not given here, printed as X-DQPDPGAVAAAAILRTILEVLQSQGV; listed as Canis lupus) [d-KV27, X = reporter or cysteine/lysine + reporter] | can effectively recognize macrophages in vivo; also recorded: can be labeled
16 | X-EQPDPGAVAAAAILRAILEVLQS ({code X}-EQPDPGAVAAAAILRAILEVLQS; reading uncertain; also: reporter type not given here, printed as X-EQPDPGAVAAAAILRAILEVLQS; listed as Homo sapiens) [KS24, X = reporter or cysteine/lysine + reporter at N-terminal] | can effectively recognize macrophages in vivo; also recorded: can be labeled
17 | X-EQPDPSAVAAAAILRAILEVLQG (not fully specified (N-terminus); printed as X-EQPDPSAVAAAAILRAILEVLQG; also: N-terminal reporter, not given here) [KESG24, X = reporter or cysteine/lysine + reporter] | can be labeled
18 | X-TKNMEAGAGRASYISSARLEQPDPGAVAAAAILRAILEVLQS (not fully specified (N-terminus); listed as Homo sapiens) [TS42] | can effectively recognize macrophages in vivo; also recorded: can be labeled
